Source: patent US9266832B2, “Compounds for the treatment of neurodegenerative diseases” (Katholieke Universiteit Levun, priority 2010, dated 2016)

The molecules below were run on M17-TAU P301L cells (assay: Tau-induced toxicity experiment: LDH leakage of retinoic acid incubated M17-TAU P301L cells). Settings: Homo sapiens, Neuroblastoma cell, 168 h; reduction of LDH activity of retinoic acid incubated M17-TAU P301L neuroblastoma cells, 7 days.
Assay type: cell-based
Excerpt: A TAU expression plasmid was constructed by sub-cloning the cDNA of human TAU-P301L (encoding for TAU with proline 301 substituted by a leucine residue) into mammalian expression vector pcDNA3.1 resulting in plasmid pcDNA3.1-TAU P301L. Plasmids pcDNA3.1 and pcDNA3.1-TAU P301L were transfected to human neuroblastoma cells ([…]; ATCC No. CRL-2267) and independent clonal lines with the plasmids stably integrated into the genome were selected. […] Expression of the TAU P301L genes in the cell lines was confirmed by Western analysis.
In degenerated or dead cells lactate dehydrogenase (LDH) is leaked out of the cells into the extracellular environment due to a loss of plasma-membrane integrity. This principle was used to determine cytotoxicity by quantifying the level of leaked LDH into the growth medium.
The detailed method for determining TAU cytotoxicity was as follows: From appropriate precultures of M17-3.1 and M17-TAU(P301L) cells were seeded at 2500 cells/cm2 in Optimem Reduced Serum without phenol red (Gibco, Cat. 31985-047) supplemented with 1% fetal calf serum, 1 mM sodium pyruvate, 1× non-essential amino acids, 500 μg/ml G418 0.5× antibiotic/antimycotic. After 3 h of incubation at 37° C./5% CO2 1 volume of Optimem Reduced Serum (same as described above; except without fetal calf serum) supplemented with 2.5 μM retinoic acid (RA) was added. The cells were further incubated for 7 days. Subsequently, LDH activity was determined using Promega Cytotox 96 Non-Radioactive cytotoxicity assay, (Cat. G1780) according the supplier's instructions.
The M17-TAU P301L cell line made it possible to assess the ability of novel compounds to counteract TAU cytotoxicity. […] These measurements were used to calculate EC50 values of table 2.

Point of comparison: `O=C(NCCc1c[nH]c2ccc(Cl)cc12)c1cccc(Cc2ccccc2F)c1` [Cpd054, N-(2-(5-chloro-1H-indol-3-yl)ethyl)-3-(2-fluorobenzyl)benzamide], EC50 42 nM. Against it:
- O=C(NCCc1c[nH]c2ccc(Cl)cc12)c1cccc(Cc2ccc(F)cc2)c1 [Cpd052, N-(2-(5-chloro-1H-indol-3-yl)ethyl)-3-(4-fluorobenzyl)benzamide] — 2.1-fold lower, 20 nM
- O=C(NCCc1c[nH]c2ccc(Cl)cc12)c1cccc(Cc2cccc(F)c2)c1 [Cpd053, N-(2-(5-chloro-1H-indol-3-yl)ethyl)-3-(3-fluorobenzyl)benzamide] — 2.5-fold lower, 17 nM
- O=C(NCCc1c[nH]c2ccc(Cl)cc12)c1cccc(Cc2cccc(Cl)c2)c1 [Cpd055, N-(2-(5-chloro-1H-indol-3-yl)ethyl)-3-(3-chlorobenzyl)benzamide] — within 1.5-fold, 36 nM
- COc1ccc(Cc2ccc(C(=O)NCCc3c[nH]c4ccc(Cl)cc34)cc2)cc1 [Cpd056, N-(2-(5-chloro-1H-indol-3-yl)ethyl)-4-(4-methoxybenzyl)benzamide] — 1.7-fold higher, 70 nM
- COc1ccc(Cc2cccc(C(=O)NCCc3c[nH]c4ccc(Cl)cc34)c2)cc1 [Cpd057, N-(2-(5-chloro-1H-indol-3-yl)ethyl)-3-(4-methoxybenzyl)benzamide] — 3.5-fold higher, 147 nM
- COc1cccc(Cc2cccc(C(=O)NCCc3c[nH]c4ccc(Cl)cc34)c2)c1 [Cpd058, N-(2-(5-chloro-1H-indol-3-yl)ethyl)-3-(3-methoxybenzyl)benzamide] — 3-fold higher, 125 nM
- N#Cc1ccccc1Cc1ccc(C(=O)NCCc2c[nH]c3ccc(Cl)cc23)cc1 [Cpd059, N-(2-(5-chloro-1H-indol-3-yl)ethyl)-4-(2-cyanobenzyl)benzamide] — 1.6-fold higher, 68 nM
- N#Cc1ccccc1Cc1cccc(C(=O)NCCc2c[nH]c3ccc(Cl)cc23)c1 [Cpd060, N-(2-(5-chloro-1H-indol-3-yl)ethyl)-3-(2-cyanobenzyl)benzamide] — 2.8-fold higher, 116 nM
- O=C(NCCc1c[nH]c2ccc(Cl)cc12)c1ccc(Cc2ccc(F)cc2)cc1 [Cpd061, N-(2-(5-chloro-1H-indol-3-yl)ethyl)-4-(4-fluorobenzyl)benzamide] — 2-fold higher, 86 nM
- Cc1cccc(C)c1Cc1ccc(C(=O)NCCc2c[nH]c3ccc(Cl)cc23)cc1 [Cpd062, N-(2-(5-chloro-1H-indol-3-yl)ethyl)-4-(2,6-dimethylbenzyl)benzamide] — 9.5-fold higher, 398 nM
- N#Cc1cccc(Nc2cccc(C(=O)NCCc3c[nH]c4ccc(Cl)cc34)c2)c1 [Cpd064, N-(2-(5-chloro-1H-indol-3-yl)ethyl)-3-(3-cyanophenylamino)benzamide] — 2.9-fold higher, 122 nM
- O=C(NCCc1c[nH]c2ccc(Cl)cc12)c1cccc(Cc2cc(F)cc(F)c2)c1 [Cpd065, N-(2-(5-chloro-1H-indol-3-yl)ethyl)-3-(3,5-difluorobenzyl)benzamide] — 4.1-fold higher, 174 nM
- COc1cccc(Cc2cccc(C(=O)NCCc3c[nH]c4ccc(Cl)cc34)c2)c1F [Cpd066, N-(2-(5-chloro-1H-indol-3-yl)ethyl)-3-(2-fluoro-3-methoxybenzyl)benzamide] — 9.2-fold higher, 386 nM
- O=C(NCCc1c[nH]c2ccc(Cl)cc12)c1ccc(Cc2cc(F)cc(F)c2)cc1 [Cpd067, N-(2-(5-chloro-1H-indol-3-yl)ethyl)-4-(3,5-difluorobenzyl)benzamide] — 2.6-fold higher, 111 nM
- COc1cccc(Cc2ccc(C(=O)NCCc3c[nH]c4ccc(Cl)cc34)cc2)c1F [Cpd068, N-(2-(5-chloro-1H-indol-3-yl)ethyl)-4-(2-fluoro-3-methoxybenzyl)benzamide] — 3.5-fold higher, 148 nM
- O=C(NCCc1c[nH]c2ccc(Cl)cc12)c1cccc(Cc2cncc(F)c2)c1 [Cpd069, N-(2-(5-chloro-1H-indol-3-yl)ethyl)-3-((5-fluoropyridin-3-yl)methyl)benzamide] — 2.1-fold higher, 90 nM
- O=C(NCc1c[nH]c2ccc(Cl)cc12)c1ccc(Cc2cccc(F)c2)cc1 [Cpd071, N-((5-chloro-1H-indol-3-yl)methyl)-4-(3-fluorobenzyl)benzamide] — 6.6-fold higher, 277 nM
- N#Cc1cccc(Cc2ccc(C(=O)NCc3c[nH]c4ccc(Cl)cc34)cc2)c1 [Cpd072, N-((5-chloro-1H-indol-3-yl)methyl)-4-(3-cyanobenzyl)benzamide] — 3.1-fold higher, 132 nM
- O=C(NCc1c[nH]c2ccc(Cl)cc12)c1ccc(Cc2cc(F)cc(F)c2)cc1 [Cpd073, N-((5-chloro-1H-indol-3-yl)methyl)-4-(3,5-difluorobenzyl)benzamide] — 5.8-fold higher, 242 nM
- O=C(NCCc1c[nH]c2ccc(Cl)cc12)c1cccc(Cc2cccs2)c1 [Cpd075, N-(2-(5-chloro-1H-indol-3-yl)ethyl)-3-(thiophen-2-ylmethyl)benzamide] — within 1.5-fold, 30 nM
- O=C(NCCc1c[nH]c2ccc(Cl)cc12)c1cccc(Cc2ccsc2)c1 [Cpd076, N-(2-(5-chloro-1H-indol-3-yl)ethyl)-3-(thiophen-3-ylmethyl)benzamide] — within 1.5-fold, 29 nM
- O=C(NCCc1c[nH]c2ccc(Cl)cc12)c1cccc(Cc2ccco2)c1 [Cpd077, N-(2-(5-chloro-1H-indol-3-yl)ethyl)-3-(furan-2-ylmethyl)benzamide] — 2.5-fold lower, 17 nM
- O=C(NCCc1c[nH]c2ccc(Cl)cc12)c1ccc(Cc2cccs2)cc1 [Cpd079, N-(2-(5-chloro-1H-indol-3-yl)ethyl)-4-(thiophen-2-ylmethyl)benzamide] — 1.9-fold higher, 81 nM
- O=C(NCCc1c[nH]c2ccc(Cl)cc12)c1ccc(Cc2ccsc2)cc1 [Cpd080, N-(2-(5-chloro-1H-indol-3-yl)ethyl)-4-(thiophen-3-ylmethyl)benzamide] — 2.3-fold lower, 18 nM
- O=C(NCCc1c[nH]c2ccc(Cl)cc12)c1ccc(Cc2ccoc2)cc1 [Cpd081, N-(2-(5-chloro-1H-indol-3-yl)ethyl)-4-(furan-3-ylmethyl)benzamide] — 1.8-fold lower, 23 nM
- O=C(NCCc1c[nH]c2ccc(F)cc12)c1cccc(Cc2cccc(F)c2)c1 [Cpd082, N-(2-(5-fluoro-1H-indol-3-yl)ethyl)-3-(3-fluorobenzyl)benzamide] — 2.7-fold higher, 112 nM
- O=C(NCCc1c[nH]c2ccc(Cl)cc12)c1cccc(Cc2ccoc2)c1 [Cpd083, N-(2-(5-chloro-1H-indol-3-yl)ethyl)-3-(furan-3-ylmethyl)benzamide] — within 1.5-fold, 56 nM
- Cc1ccc2[nH]cc(CCNC(=O)c3ccc(Cc4cccc(F)c4)cc3)c2c1 [Cpd084, 4-(3-fluorobenzyl)-N-(2-(5-methyl-1H-indol-3-yl)ethyl)benzamide] — 1.6-fold lower, 26 nM
- O=C(NCCc1c[nH]c2ccc(Cl)cc12)c1ccc(Cc2cccnc2)cc1 [Cpd085, N-(2-(5-chloro-1H-indol-3-yl)ethyl)-4-(pyridin-3-ylmethyl)benzamide] — 2.8-fold higher, 117 nM
- O=C(NCCc1c[nH]c2ccc(Cl)cc12)c1ccc(Cc2ccncc2)cc1 [Cpd086, N-(2-(5-chloro-1H-indol-3-yl)ethyl)-4-(pyridin-4-ylmethyl)benzamide] — 3.6-fold higher, 151 nM
- O=C(NCCc1c[nH]c2ccc(Cl)cc12)c1ccc(Cc2ccco2)cc1 [Cpd087, N-(2-(5-chloro-1H-indol-3-yl)ethyl)-4-(furan-2-ylmethyl)benzamide] — 3.2-fold higher, 133 nM
- COc1cccc(Oc2cccc(C(=O)NCCc3c[nH]c4ccc(Cl)cc34)c2)c1 [Cpd089, N-(2-(5-chloro-1H-indol-3-yl)ethyl)-3-(3-methoxyphenoxy)benzamide] — 2.3-fold higher, 98 nM
- Cc1cccc(Oc2cccc(C(=O)NCCc3c[nH]c4ccc(Cl)cc34)c2)c1 [Cpd090, N-(2-(5-chloro-1H-indol-3-yl)ethyl)-3-(m-tolyloxy)benzamide] — 2.2-fold higher, 91 nM
